Source: BindingDB's records for doi:10.1021/ja062999h (The Scripps Research Institute, 2006)
pIC50: −log10 of the molar value.

Key:
Details in all cases: pH 7.4; 22 °C
[1] = biological target: T1, Monoglyceride lipase (Mus musculus, UniProt O35678); assay: Serine Hydrolase Activity Assay
T1 sequence (O35678 whole entry): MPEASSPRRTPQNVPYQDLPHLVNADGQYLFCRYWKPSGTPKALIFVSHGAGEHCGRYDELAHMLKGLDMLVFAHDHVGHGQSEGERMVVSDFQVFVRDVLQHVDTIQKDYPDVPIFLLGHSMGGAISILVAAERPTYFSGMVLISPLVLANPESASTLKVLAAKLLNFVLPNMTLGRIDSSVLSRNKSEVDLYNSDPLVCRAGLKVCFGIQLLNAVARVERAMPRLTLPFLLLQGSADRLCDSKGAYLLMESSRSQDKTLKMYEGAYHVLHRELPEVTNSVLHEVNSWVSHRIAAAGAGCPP
Description: (§1) Serine hydrolase targets were recombinantly expressed in COS-7 cells by transient transfection. IC50 values were obtained by competitive ABPP with FP-rhodamine.

[2] = biological target: T2, Monoacylglycerol lipase ABHD6 (Mus musculus, UniProt Q8R2Y0); assay: Serine Hydrolase Activity Assay
T2 sequence (Q8R2Y0 whole entry): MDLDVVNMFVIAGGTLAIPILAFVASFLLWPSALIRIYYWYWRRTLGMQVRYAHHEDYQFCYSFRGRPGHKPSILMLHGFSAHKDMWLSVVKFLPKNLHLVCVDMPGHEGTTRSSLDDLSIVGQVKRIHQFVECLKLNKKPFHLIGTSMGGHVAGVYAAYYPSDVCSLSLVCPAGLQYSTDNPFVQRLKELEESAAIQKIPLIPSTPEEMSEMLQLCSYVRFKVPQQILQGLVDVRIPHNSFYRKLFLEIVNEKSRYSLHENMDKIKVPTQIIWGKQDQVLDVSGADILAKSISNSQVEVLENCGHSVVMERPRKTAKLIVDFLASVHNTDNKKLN
Description: as §1

[3] = biological target: T3, Neutral cholesterol ester hydrolase 1 (Mus musculus, UniProt Q8BLF1); assay: Serine Hydrolase Activity Assay
T3 sequence (Q8BLF1 whole entry): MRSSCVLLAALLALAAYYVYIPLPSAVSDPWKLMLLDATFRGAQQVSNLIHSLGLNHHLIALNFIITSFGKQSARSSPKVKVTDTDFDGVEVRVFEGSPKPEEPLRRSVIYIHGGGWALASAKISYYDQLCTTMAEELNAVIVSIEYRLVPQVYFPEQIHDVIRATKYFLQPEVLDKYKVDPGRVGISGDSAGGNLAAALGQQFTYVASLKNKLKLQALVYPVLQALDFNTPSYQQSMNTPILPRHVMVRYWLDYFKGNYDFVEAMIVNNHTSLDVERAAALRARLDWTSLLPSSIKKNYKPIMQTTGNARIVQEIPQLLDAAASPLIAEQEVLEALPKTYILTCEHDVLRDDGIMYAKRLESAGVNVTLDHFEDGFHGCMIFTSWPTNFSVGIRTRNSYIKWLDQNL
Description: as §1

[4] = biological target: T4, Fatty-acid amide hydrolase 1 (Mus musculus, UniProt O08914); assay: FAAH Competitive ABPP Using FP-Rhodamine
T4 sequence (O08914 whole entry): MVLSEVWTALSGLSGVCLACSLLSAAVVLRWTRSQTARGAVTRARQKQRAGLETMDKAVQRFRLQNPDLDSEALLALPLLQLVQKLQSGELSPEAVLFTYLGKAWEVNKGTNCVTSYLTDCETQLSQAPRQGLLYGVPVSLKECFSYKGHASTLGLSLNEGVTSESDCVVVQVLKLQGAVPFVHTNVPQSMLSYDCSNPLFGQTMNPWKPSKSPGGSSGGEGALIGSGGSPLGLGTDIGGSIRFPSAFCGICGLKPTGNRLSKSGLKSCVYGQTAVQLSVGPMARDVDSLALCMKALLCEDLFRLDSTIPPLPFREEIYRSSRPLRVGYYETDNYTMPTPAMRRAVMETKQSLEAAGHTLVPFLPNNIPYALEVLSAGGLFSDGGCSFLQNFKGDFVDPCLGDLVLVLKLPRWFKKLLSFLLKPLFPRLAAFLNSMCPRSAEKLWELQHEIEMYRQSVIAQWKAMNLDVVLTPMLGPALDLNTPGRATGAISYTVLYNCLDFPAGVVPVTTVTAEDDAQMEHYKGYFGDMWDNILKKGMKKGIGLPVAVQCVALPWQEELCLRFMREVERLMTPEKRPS
Experimental: Mouse brain membrane proteomes were preincubated with varying concentrations of inhibitors for 10 min prior to the addition of a rhodamine-tagged fluorophosphonate (FP-rhodamine). Reactions were quenched after 10 min, subjected to SDS-PAGE, and visualized in-gel using a flatbed fluorescence scanner. Labeled proteins were quantified by measuring integrated band intensities. Dose response curves obtained from three trials at each inhibitor concentration were fit using Prism software (GraphPad) to

pIC50 [1]: 8.28 | pIC50 [2]: 10.05 | pIC50 [3]: 8.09 | pIC50 [4]: 7.89
Structure (SMILES): CN(C)C(=O)n1nnnc1Cc1ccc(-c2ccccc2)cc1 [N,N-dimethyl-5-[(4-phenylphenyl)methyl]-1H-1,2,3,4-tetrazole-1-carboxamide]
